# Data from US7691827B2, “Amide prodrug of gemcitabine, compositions and use thereof” (Eli Lilly and Company, priority 2004, dated 2010).
# Experiments:
# [1] = pH Chemical Stability Assay; assay type: physicochemical; conditions: pH range 1 to 8, after four hours, 40° C., 100 mcg/mL
# Protocol: pH Chemical Stability Assay
# The pH chemical stability is assessed using a semi-automated HPLC technique. Samples of compound of formula I are prepared at 100 mcg/mL in five buffers representing the pH range throughout the gastrointestinal tract (pH1-pH8). Samples are loaded onto an HPLC autosampler incubated at 40° C. Samples are repeatedly injected on the HPLC at hourly intervals for up to 24 hours with an HPLC column that separates a compound of formula I from gemcitabine. The peak area of the compound of formula I is monitored by UV detection over time and are compared to initial peak areas to determine stability.
# [2] = Mouse Pharmacokinetics; assay type: in vivo, CD-1 mice
# Protocol: The pharmacokinetic profiles of gemcitabine and a compound of formula I, are assessed in male CD-1 mice following oral administration at doses selected to contain approximately 10 mg/kg of gemcitabine. Designated animals (n=3/time point/compound) are sacrificed at 0.08, 0.25, 0.5, 1, 2, and 6 hours after dosing, and systemic blood samples are collected into EDTA-treated tubes containing tetrahydrouridine (0.5 mM final concentration in blood) to inhibit further metabolism of gemcitabine. An additional 3 animals are sacrificed at 0.08 hours for collection of hepatic portal blood. Plasma is isolated by centrifugation and frozen prior to analysis. Plasma concentrations of gemcitabine and prodrugs are determined by LC/MS/MS analysis. Pharmacokinetic parameters are calculated using WinNonlin software (Pharsight Corp., Mountain View, Calif.). Pharmacokinetic parameters of each prodrug are compared to those determined from administration of oral gemcitabine hydrochloride in a similar study design.
# [3] = Monkey Pharmacokinetics Assay; assay type: in vivo; conditions: administered intravenously to cynomolgus monkeys
# Protocol: Monkey Pharmacokinetics Assay
# The pharmacokinetic profiles of gemcitabine and a compound of formula I, are assessed in cynomolgus monkeys following oral and intravenous administration in a crossover design. Compounds are administered at doses selected to contain approximately 10 mg/kg of gemcitabine. Blood samples are collected into EDTA-treated tubes containing tetrahydrouridine (0.5 mM final concentration in blood) at designated intervals for up to 48 hours. Animals are pretreated with ranitidine (intravenous, 5 mg/kg) in the oral dosing periods. Plasma is isolated by centrifugation and frozen prior to analysis. Plasma concentrations of gemcitabine and a compound of formula I are determined by LC/MS/MS analysis. Pharmacokinetic parameters are determined using WinNonlin software (Pharsight Corp., Mountain View, Calif.).
# [4] = Small Intestine Homogenate Assay (mouse); assay type: in vitro ADME, CD-1 mice; conditions: mouse SIH, 100 uM, pH 7.5
# Protocol: (§1) Small Intestine Homogenate Assay
# (§2) To determine the stability of a compound of formula I to enzymatic hydrolysis in the intestine, crude homogenates of small intestinal epithelial cells are prepared from sections of the upper small intestine from CD-1 mice, beagle dogs, cynomolgus monkeys, and humans. Mouse and dog homogenates are prepared from freshly collected tissue, while monkey and human homogenates are prepared from previously frozen tissues. Cells are gently scraped from intestinal segments, pooled, and homogenized in 50 mM acetate buffer using Polytron (PT-10-85). Protein concentrations are determined by standard spectrophotometric techniques. The prepared homogenates are store at −70° C. before using.
# (§3) The hydrolytic rates of a compound of formula I in small intestinal homogenates (SIH) is determined by incubating a compound of formula I (100 uM) with SIH (2.5-5 mg/mL of total protein) in acetate at pH 7.5 for up to 6 hours. Concentrations of gemcitabine released via hydrolysis is determined by LC/MS analysis after the reaction is quenched with acetonitrile. Hydrolysis rates are calculated at 30 minutes in screening experiments and from the slope of the linear portion of the hydrolysis vs. time curves in characterization studies of a compound of formula I.
# [5] = Small Intestine Homogenate Assay (dog); assay type: in vitro ADME, beagle dogs; conditions: dog SIH, 100 uM, pH 7.5
# Protocol: as §1, §2, §3
# [6] = Small Intestine Homogenate Assay (monkey); assay type: in vitro ADME, cynomolgus monkeys; conditions: monkey SIH
# Protocol: as §1, §2, §3
# [7] = Small Intestine Homogenate Assay (human); assay type: in vitro ADME, humans; conditions: human SIH
# Protocol: as §1, §2, §3
# [8] = Liver S9 Hydrolysis Assay (mouse); assay type: in vitro ADME, CD-1 mouse; conditions: mouse liver S9, 10 uM, pH 8.0
# Protocol: (§4) Liver S9 Hydrolysis Assay
# (§5) Hydrolysis of a compound of formula I by liver enzymes is determined by liver hydrolysis assay. Liver homogenates are prepared from CD-1 mouse, beagle dog, cynomolgus monkey, and human livers. Liver tissues are cut into small pieces using scissors, then, homogenized in 50 mM acetate buffer using Polytron (PT-10-85) for 1 min. Post-mitochondrial (S9) fractions are prepared from each by ultracentrifugation at 9,000×g at 4° C. for 10 min. Mouse, dog and monkey liver S9 fractions are prepared from freshly collected tissues, while human liver S9 are prepared from previously frozen tissue. After centrifugation, the supernatant is collected and protein concentrations are determined by standard spectrophotometric techniques. The prepared S9 fractions are store at −70° C. before using.
# (§6) The hydrolytic rates of a compound of formula I in liver S9 is determined by incubating compound (10 uM) with S9 (2 mg/mL of total protein) in phosphate buffered saline at pH 8.0 for up to 6 hours. Concentrations of gemcitabine released via hydrolysis are determined by LC/MS analysis after the reaction is quenched with acetonitrile. Hydrolysis rates are calculated at 30 minutes in screening experiments and from the slope of the linear portion of the hydrolysis vs. time curves in characterization studies of a compound of formula I.
# [9] = Liver S9 Hydrolysis Assay (dog); assay type: in vitro ADME, beagle dog; conditions: dog liver S9, 10 uM, pH 8.0
# Protocol: as §4, §5, §6
# [10] = Liver S9 Hydrolysis Assay (monkey); assay type: in vitro ADME, cynomolgus monkey
# Protocol: as §4, §5, §6
# [11] = Liver S9 Hydrolysis Assay (human); assay type: in vitro ADME
# Protocol: as §4, §5, §6
# [12] = 4-Day Mouse Screen (oral toxicity); assay type: in vivo; conditions: oral gavage once daily for 4 days, molar equivalent of 8-mg/kg gemcitabine, female CD-1 mice
# Protocol: To evaluate the toxicity produced by orally administered compound of formula I when administered daily to female […] mice for 4 days, the gastrointestinal toxicity profiles of a compound of formula I is compared with the historical results for gastrointestinal toxicity when gemcitabine is administered orally at 8 mg/kg in a 4-day mouse study.
# Female CD-1 mice 5-8 weeks of age are dosed with a compound of formula I by oral gavage. A dose level is chosen to approximate a molar equivalent of 8-mg/kg gemcitabine. A dose volume of 10 mL/kg is used and doses are administered once daily on 4 consecutive days. Necropsy is performed approximately 5-8 hours following the 4th dose.
# Clinical signs, clinical chemistry, gross pathology, and limited histopathology (ileum, jejunum, and liver) are evaluated.
# [13] = 14 Day Mouse Study (oral toxicity and exposure); assay type: in vivo; conditions: 14 days oral gavage, CD-1 mice
# Protocol: A 14-Day Mouse Study is conducted to evaluate whether a compound of formula I produces adverse effects in mice following 14 days of oral gavage dosing and to determine the plasma concentrations of a compound of formula I and its metabolites gemcitabine HCl and deoxydifluorouridine after 1 or 14 doses.
# Male and female CD-1 mice 9-12 weeks of age are dosed with a compound of formula I […] by oral gavage. A range of doses is selected in an effort to determine a maximum tolerated dose and dose limiting toxicity. A dose volume of 10 mL/kg is used and doses are administered once daily.
# Clinical signs, body weight, food consumption, hematology, clinical chemistry, plasma concentrations of a compound of formula I and metabolites gemcitabine HCl and deoxydifluorouridine, and pathology (including gross pathology, organ weights, and histopathology) are evaluated.
# [14] = 7-Day Dog Study (oral toxicity); assay type: in vivo; conditions: oral capsule once daily for 7 days, beagle dogs
# Protocol: To evaluate the toxicity profile of a compound of formula I when administered to Beagle dogs for 7 days, and to determine the plasma concentrations of a compound of formula I and metabolites gemcitabine HCl and deoxydifluorouridine after 1 or 7 doses, a 7-day dog study is conducted.
# Male and female beagle dogs 6-48 months of age are dosed orally via capsule with a compound of formula I. A range of doses is selected in an effort to determine a maximum tolerated dose and dose limiting toxicity. A dose volume of 1 mL/kg is used and doses aree administered once daily.
# Clinical signs, body weight, food consumption, body temperature, hematology (including coagulation), clinical chemistry, urinalysis, plasma concentrations of the compound of Example I and its metabolites gemcitabine HCl and deoxydifluorouridine, and pathology (including gross pathology, organ weights, and histopathology) were evaluated.
# [15] = tested on: HCT-116 colon tumor cells; assay: In Vivo Assay, HCT-116 colon tumor xenograft; conditions: oral gavage, HCT-116 xenograft in female nude mice
# Protocol: HCT-116 colon tumor cells are grown in vitro under standard tissue culture conditions, harvested, washed, and 5×10^6 cells (1:1 suspension in Matrigel, Collaborative Biomedical Products, Inc) are injected subcutaneously in the rear flank of female nude mice (Charles River, CD1 nu/nu, 24-27 g, irradiated with 450 Rads within 24 h of implantation). Tumors are allowed to grow to ˜100 mm^3 before initiation of therapy. Vehicle control, a compound of formula I or gemcitabine-HCl at various dose levels are administered to the mice by oral gavage (10 ml/kg volume) at the times indicated in the individual experiments. Compounds are administered either daily for fourteen days, every other day for a total of seven doses, or every third day for a total of four doses. […] Tumor size is determined by caliper measurements and tumor volume (mm^3) is estimated from the formula l×w^2×0.536, where l is the larger and w is the smaller of perpendicular diameters. All data (tumor measurements and animal weights) are captured twice-weekly beginning with the start of therapy and analyzed using a computer based tumor measurement system.
# [16] = cited from earlier work
# [17] = result of first pass metabolism; cited from earlier work
structure (smiles),measurement,setting,value
"CCCC(CCC)C(=O)Nc1ccn([C@@H]2O[C@H](CO)[C@@H](O)C2(F)F)c(=O)n1 [Example 1, 1-(2,2-difluoro-2-deoxy-β-D-ribofuranosyl)-4-(2-propyl-1-oxopentyl)aminopyrimidin-2-one]",compound degraded to gemcitabine,[1],Less than 25%
same,concentration of intact prodrug in hepatic portal plasma,"[2]; 0.08 hours after oral dosing, CD-1 mice",relatively high concentrations
same,hydrolysis in vivo to release gemcitabine,"[2]; administered orally to CD-1 mice, approx. 10 mg/kg of gemcitabine",extensively hydrolyzed
same,plasma exposure to gemcitabine compared to direct oral administration of gemcitabine hydrochloride,"[2]; oral, CD-1 mice",increased
same,hydrolysis in vivo to release gemcitabine,[3],extensively hydrolyzed
same,rate of hydrolysis in small intestine homogenate,[4],slow rate of hydrolysis
same,rate of hydrolysis in small intestine homogenate,[5],slow rate of hydrolysis
same,rate of hydrolysis in small intestine homogenate,"[6]; 100 uM, pH 7.5",slow rate of hydrolysis
same,total compound converted to gemcitabine,[6]; 6 hour incubation,less than 3%
same,rate of hydrolysis in small intestine homogenate,"[7]; 100 uM, pH 7.5",slow rate of hydrolysis
same,total compound converted to gemcitabine,[7]; 6 hour incubation,less than 3%
same,hydrolysis in liver S9,[8],hydrolyzed
same,hydrolysis in liver S9,[9],hydrolyzed
same,hydrolysis in liver S9,"[10]; monkey liver S9, 10 uM, pH 8.0",hydrolyzed
same,total compound converted to gemcitabine,"[10]; monkey liver S9, 6 hour incubation",approximately 3.5%
same,hydrolysis in liver S9,"[11]; human liver S9, 10 uM, pH 8.0",hydrolyzed
same,total compound converted to gemcitabine,"[11]; human liver S9, 6 hour incubation",approximately 3.5%
same,severity of atrophic intestinal changes or enteropathy versus gemcitabine HCl,[12],significant reduction
same,enteropathy versus gemcitabine HCl on a molar equivalent basis,[13],less enteropathy
same,systemic exposure to gemcitabine HCl versus gemcitabine HCl on a molar equivalent basis,[13],approximately twice
same,"hematotoxicity and the other toxicities, including GI toxicity",[14],consistent with what has been previously described for parenteral gemcitabine
same,antitumor efficacy versus equivalent dose of gemcitabine-HCl,[15],comparable
same,overall toxicity versus equivalent amount of gemcitabine-HCl,[15],less overall toxicity
"Nc1ccn([C@@H]2O[C@H](CO)[C@@H](O)C2(F)F)c(=O)n1 [gemcitabine, 2′,2′-difluoro-2′-deoxycytidine]",death or gastrointestinal toxicity,"[16]; comparable exposures via intravenous dosing, previous mouse studies",did not result in death or gastrointestinal toxicity
same,intestinal lesions,"[16]; single oral (gavage) dose of 167, 333, or 500 mg/kg, mice",moderate-to-marked loss of mucosal epithelium (atrophic enteropathy)
same,oral bioavailability,[17],poor oral bioavailability
